# Reference: ChEMBL document CHEMBL3734667 (Bioorg Med Chem, 2015)
# System: not listed separately
# Assay: Cytotoxicity against human MT4 cells assessed as cell viability after 96 hrs by MTT assay
# Type: cell-based
# Conditions: not given
row,SMILES,CC50 at 96 h
1,Clc1c(Cl)c(Cl)c2c(nnn2C2CCCO2)c1Cl (stereo not given),95 µM
2,O=C(O)COc1ccc(-n2nc3ccc(Cl)cc3[n+]2[O-])cc1,> 100 µM
3,COc1cc(/C=C/C(=O)OCCCn2nnc3ccccc32)cc(OC)c1OC,> 100 µM
4,Clc1cc2nnn(C3CCCO3)c2cc1Cl (stereo not given),> 100 µM
5,CN(C)c1cccc(C(=O)OCCn2nnc3ccccc32)c1,65 µM
6,CC(CC(=O)O)n1nnc2ccc([N+](=O)[O-])cc21 (stereo not given),> 100 µM
7,NNC(=O)Cn1nnc2ccccc21,> 100 µM

# System: not listed separately
# Assay: Cytotoxicity against MDBK cells assessed as cell viability after 48 to 96 hrs by MTT assay
# Type: cell-based, Bos taurus
# Conditions: cattle
row,SMILES,CC50
1,O=C(O)COc1ccc(-n2nc3ccc(Cl)cc3[n+]2[O-])cc1,> 100 µM
2,COc1cc(/C=C/C(=O)OCCCn2nnc3ccccc32)cc(OC)c1OC,83 µM
3,Clc1cc2nnn(C3CCCO3)c2cc1Cl (stereo not given),> 100 µM
4,CN(C)c1cccc(C(=O)OCCn2nnc3ccccc32)c1,≥ 100 µM
5,CC(CC(=O)O)n1nnc2ccc([N+](=O)[O-])cc21 (stereo not given),> 100 µM
6,NNC(=O)Cn1nnc2ccccc21,> 100 µM

# System: not listed separately
# Assay: Cytotoxicity against BHK cells assessed as cell viability after 48 to 96 hrs by MTT assay
# Type: cell-based, Mesocricetus auratus
# Conditions: hamster
row,SMILES,CC50
1,O=C(O)COc1ccc(-n2nc3ccc(Cl)cc3[n+]2[O-])cc1,> 100 µM
2,COc1cc(/C=C/C(=O)OCCCn2nnc3ccccc32)cc(OC)c1OC,> 100 µM
3,Clc1cc2nnn(C3CCCO3)c2cc1Cl (stereo not given),> 100 µM
4,CN(C)c1cccc(C(=O)OCCn2nnc3ccccc32)c1,> 100 µM
5,CC(CC(=O)O)n1nnc2ccc([N+](=O)[O-])cc21 (stereo not given),> 100 µM
6,NNC(=O)Cn1nnc2ccccc21,> 100 µM

# System: not listed separately
# Assay: Cytotoxicity against african green monkey Vero 76 cells assessed as cell viability after 48 to 96 hrs by crystal violet staining method
# Type: cell-based
# Conditions: chlorocebus sabaeus
row,SMILES,CC50
1,O=C(O)COc1ccc(-n2nc3ccc(Cl)cc3[n+]2[O-])cc1,100 µM
2,COc1cc(/C=C/C(=O)OCCCn2nnc3ccccc32)cc(OC)c1OC,> 100 µM
3,CN(C)c1cccc(C(=O)OCCn2nnc3ccccc32)c1,≥ 100 µM
4,CC(CC(=O)O)n1nnc2ccc([N+](=O)[O-])cc21 (stereo not given),> 100 µM
5,NNC(=O)Cn1nnc2ccccc21,> 100 µM

# System: Bovine viral diarrhea virus 1
# Assay: Antiviral activity against BVDV infected in MDBK cells assessed as inhibition of virus-induced cytopathogenicity after 3 to 4 days by MTT assay
# Type: functional, organism-based
# Conditions: Bovine viral diarrhea virus isolates and strains
row,SMILES,EC50
1,O=C(O)COc1ccc(-n2nc3ccc(Cl)cc3[n+]2[O-])cc1,> 100 µM
2,COc1cc(/C=C/C(=O)OCCCn2nnc3ccccc32)cc(OC)c1OC,> 100 µM
3,Clc1cc2nnn(C3CCCO3)c2cc1Cl (stereo not given),> 100 µM
4,CN(C)c1cccc(C(=O)OCCn2nnc3ccccc32)c1,> 100 µM
5,CC(CC(=O)O)n1nnc2ccc([N+](=O)[O-])cc21 (stereo not given),> 100 µM
6,NNC(=O)Cn1nnc2ccccc21,> 100 µM

# System: Yellow fever virus
# Assay: Antiviral activity against YFV infected in BHK-21 cells assessed as inhibition of virus-induced cytopathogenicity after 3 to 4 days by MTT assay
# Type: functional, organism-based
# Conditions: not given
row,SMILES,EC50
1,O=C(O)COc1ccc(-n2nc3ccc(Cl)cc3[n+]2[O-])cc1,> 100 µM
2,COc1cc(/C=C/C(=O)OCCCn2nnc3ccccc32)cc(OC)c1OC,> 100 µM
3,Clc1cc2nnn(C3CCCO3)c2cc1Cl (stereo not given),> 100 µM
4,CN(C)c1cccc(C(=O)OCCn2nnc3ccccc32)c1,> 100 µM
5,CC(CC(=O)O)n1nnc2ccc([N+](=O)[O-])cc21 (stereo not given),> 100 µM
6,NNC(=O)Cn1nnc2ccccc21,> 100 µM

# System: Mammalian orthoreovirus 1
# Assay: Antiviral activity against Reo-1 virus infected in BHK-21 cells assessed as inhibition of virus-induced cytopathogenicity after 3 to 4 days by MTT assay
# Type: functional, cell-based
# Conditions: Mammalian orthoreovirus 1, BHK-21
row,SMILES,EC50
1,O=C(O)COc1ccc(-n2nc3ccc(Cl)cc3[n+]2[O-])cc1,> 100 µM

# System: Coxsackievirus B5
# Assay: Antiviral activity against human CVB5 infected in african green monkey Vero76 cells assessed as inhibition of virus-induced cytopathogenicity after 3 days by plaque reduction assay
# Type: functional, organism-based
# Conditions: Enterovirus B, Vero 76, 72 h
row,SMILES,EC50
1,O=C(O)COc1ccc(-n2nc3ccc(Cl)cc3[n+]2[O-])cc1,> 100 µM
2,COc1cc(/C=C/C(=O)OCCCn2nnc3ccccc32)cc(OC)c1OC,> 100 µM
3,CN(C)c1cccc(C(=O)OCCn2nnc3ccccc32)c1,> 100 µM
4,CC(CC(=O)O)n1nnc2ccc([N+](=O)[O-])cc21 (stereo not given),> 100 µM
5,NNC(=O)Cn1nnc2ccccc21,> 100 µM

# System: Human orthopneumovirus
# Assay: Antiviral activity against human RSV infected in african green monkey Vero76 cells assessed as inhibition of virus-induced cytopathogenicity after 5 days by plaque reduction assay
# Type: functional, organism-based
# Conditions: human respiratory syncytial virus, Vero 76, 120 h
row,SMILES,EC50
1,O=C(O)COc1ccc(-n2nc3ccc(Cl)cc3[n+]2[O-])cc1,> 100 µM
2,COc1cc(/C=C/C(=O)OCCCn2nnc3ccccc32)cc(OC)c1OC,> 100 µM
3,CN(C)c1cccc(C(=O)OCCn2nnc3ccccc32)c1,> 100 µM
4,CC(CC(=O)O)n1nnc2ccc([N+](=O)[O-])cc21 (stereo not given),> 100 µM
5,NNC(=O)Cn1nnc2ccccc21,> 100 µM

# System: Poliovirus 1
# Assay: Antiviral activity against Human poliovirus 1 Sabin infected in african green monkey Vero76 cells assessed as inhibition of virus-induced cytopathogenicity by plaque reduction assay
# Type: functional, organism-based
# Conditions: Enterovirus C, Vero 76
row,SMILES,EC50
1,O=C(O)COc1ccc(-n2nc3ccc(Cl)cc3[n+]2[O-])cc1,> 100 µM

# System: Human immunodeficiency virus 1
# Assay: Antiviral activity against HIV-1 infected in MT4 cells assessed as inhibition of virus-induced cytopathogenicity after 4 days by MTT assay
# Type: functional, organism-based
# Conditions: Human immunodeficiency virus 1, MT4, 96 h
row,SMILES,EC50
1,Clc1c(Cl)c(Cl)c2c(nnn2C2CCCO2)c1Cl (stereo not given),> 100 µM
2,O=C(O)COc1ccc(-n2nc3ccc(Cl)cc3[n+]2[O-])cc1,> 100 µM
3,COc1cc(/C=C/C(=O)OCCCn2nnc3ccccc32)cc(OC)c1OC,> 100 µM
4,Clc1cc2nnn(C3CCCO3)c2cc1Cl (stereo not given),> 100 µM
5,CN(C)c1cccc(C(=O)OCCn2nnc3ccccc32)c1,> 100 µM
6,CC(CC(=O)O)n1nnc2ccc([N+](=O)[O-])cc21 (stereo not given),> 100 µM
7,NNC(=O)Cn1nnc2ccccc21,> 100 µM

# System: Vesicular stomatitis virus
# Assay: Antiviral activity against VSV
# Type: functional, organism-based
# Conditions: not given
row,SMILES,EC50
1,O=C(O)COc1ccc(-n2nc3ccc(Cl)cc3[n+]2[O-])cc1,> 100 µM
2,COc1cc(/C=C/C(=O)OCCCn2nnc3ccccc32)cc(OC)c1OC,> 100 µM
3,CN(C)c1cccc(C(=O)OCCn2nnc3ccccc32)c1,> 100 µM
4,CC(CC(=O)O)n1nnc2ccc([N+](=O)[O-])cc21 (stereo not given),> 100 µM
5,NNC(=O)Cn1nnc2ccccc21,> 100 µM

# System: Vaccinia virus
# Assay: Antiviral activity against Vaccinia virus
# Type: functional, organism-based
# Conditions: Orthopoxvirus vaccinia
row,SMILES,EC50
1,O=C(O)COc1ccc(-n2nc3ccc(Cl)cc3[n+]2[O-])cc1,> 100 µM
2,COc1cc(/C=C/C(=O)OCCCn2nnc3ccccc32)cc(OC)c1OC,> 100 µM
3,CN(C)c1cccc(C(=O)OCCn2nnc3ccccc32)c1,> 100 µM
4,CC(CC(=O)O)n1nnc2ccc([N+](=O)[O-])cc21 (stereo not given),> 100 µM
5,NNC(=O)Cn1nnc2ccccc21,> 100 µM
